Experimental data as given in patent US8846655B2, “4-substituted-2-phenoxy-phenylamine delta opioid receptor modulators” (Janssen Pharmaceutica, NV, priority 2009, dated 2014).

Experiments:
[1] = biological target: T1, mu opioid receptor (Rattus norvegicus, UniProt P33535); assay: Rat brain mu opioid receptor binding assay; conditions: rat forebrain membranes, ~0.8 nM [3H]DAMGO; read-out: μ-binding Ki
T1 construct: the forebrains were homogenized in Tris buffer in a Teflon®-glass homogenizer; from tissue; host or cells: rat forebrain membrane homogenate (male Wistar rats)
Method: Procedure: Male, Wistar rats (150-250 g, VAF, Charles River, Kingston, N.Y.) were killed by CO2, and their brains were removed and placed immediately in ice cold Tris HCl buffer (50 mM, pH 7.4). The forebrains were separated from the remainder of the brain by a coronal transection, beginning dorsally at the colliculi and passing ventrally through the midbrain-pontine junction. After dissection, the forebrains were homogenized in Tris buffer in a Teflon®-glass homogenizer. The homogenate was diluted to a concentration of 1 g of forebrain tissue per 80 mL Tris and centrifuged at 39,000×g for 10 min. The pellet was resuspended in the same volume of Tris buffer containing 5 mM MgCl2 with several brief pulses from a Polytron homogenizer. This particulate preparation was used for the mu opioid binding assays.

[2] = biological target: T2, delta opioid receptor (Mus musculus, UniProt P32300); assay: [35S]GTPγS binding assay in NG108-15 cell membranes (delta opioid functional assay), 200 nM screen; format: biochemical; conditions: 200 nM compound; relative to calculated max of SNC80 dose response
T2 construct: NG108-15 cell membranes were purchased from Applied Cell Sciences (Rockville, Md.); host or cells: NG108-15 cell membranes (purchased)
Method: Methods: NG108-15 cell membranes were purchased from Applied Cell Sciences (Rockville, Md.). 5 mg/mL of membrane protein suspended in 10 mM TRIS-HCl pH 7.2, 2 mM EDTA, 10% sucrose. Membranes were maintained at 4-8° C. A 1 mL volume of membranes was added into 10 mL cold binding assay buffer. The assay buffer contained 50 mM Tris, pH 7.6, 5 mM MgCl2, 100 mM NaCl, 1 mM DTT and 1 mM EGTA. The membrane suspension was homogenized twice with a Polytron, and centrifuged at 3000 rpm for 10 min. The supernatant was then centrifuged at 18,000 rpm for 20 min. Ten mL assay buffer was added into the pellet containing tube. The pellet and buffer were mixed with a Polytron.
Incubation procedure: The pellet membranes (75 μg/mL) were preincubated with SPA (10 mg/mL) at 25° C. for 45 min in the assay buffer. The SPA (5 mg/mL) coupled with membranes (37.5 μg/mL) was then incubated with 0.1 nM [^35S] GTPγS in the same Tris buffer containing 100 μM GDP in total volume of […]. 200 nM of receptor agonists was used to stimulate [^35S]-GTPγS binding. The basal binding was tested in the absence of agonists and non-specific binding was tested in the presence of 10 μM unlabeled GTPγS.
Data % of Basal=(stimulated−non specific)*100/(basal−non specific). Relative Efficacy of a compound at 200 nM=(% of Basal of test compound at 200 nM)/(Calculated Max of SNC80 dose response. Curve in prism).

[3] = biological target: T3, δ-opioid receptor (Mus musculus, UniProt P32300); assay: [35S]GTPγS δ-opioid receptor functional assay (EC50, relative efficacy, % inhibition); format: biochemical
T3 construct: NG108-15 cell membranes were purchased from Applied Cell Sciences (Rockville, Md.)
Method: Incubation procedure: The pellet membranes (75 μg/mL) were preincubated with SPA (10 mg/mL) at 25° C. for 45 min in the assay buffer. […] GTPγS in the same Tris buffer containing 100 μM GDP in total volume of 200 pt. 200 nM of receptor agonists was used to stimulate [^35S]-GTPγS binding. The basal binding was tested in the absence of agonists and non-specific binding was tested in the presence of 10 μM unlabeled GTPγS.
Compounds were tested for function as antagonists by evaluating their potential to inhibit agonist-stimulated GTPγS binding. Radioactivity was quantified on a Packard TopCount.

[4] = test system: mice; assay: Mouse Graded Abdominal Irritant Test (GrAIT); format: in vivo; conditions: 10% Solutol, 30 min pretreatment
Method: Test compound or vehicle was administered s.c. or p.o. to mice. Following the pretreatment time, an i.p. injection of 0.6% of acetic acid in 0.5 mL was administered. Five min after acetic acid administration, mice were placed into clear chambers and were continuously observed for 5 min. Behavioral responses including twisting and elongation of the body that extended through the hindlimbs were counted and averaged for the group of animals over the observation period.

[5] = biological target: T4, delta opioid receptor (Rattus norvegicus, UniProt P33533); assay: Rat brain delta opioid receptor binding assay; conditions: rat forebrain membranes, 0.25 nM [3H]naltrindole; read-out: δ-binding (Naltrindole ligand) Ki
T4 construct: the forebrains were homogenized in Tris buffer in a Teflon®-glass homogenizer; from tissue; host or cells: rat forebrain membrane homogenate (male Wistar rats)
Method: Procedure: Male, Wistar rats (150-250 g, VAF, Charles River, Kingston, N.Y.) were killed by CO2, and their brains were removed and placed immediately in ice cold Tris HCl buffer (50 mM, pH 7.4). The forebrains were separated from the remainder of the brain by a coronal transection, beginning dorsally at the colliculi and passing ventrally through the midbrain-pontine junction. After dissection, the forebrains were homogenized in Tris buffer in a Teflon®-glass homogenizer. The homogenate was diluted to a concentration of 1 g of forebrain tissue per 80 mL Tris and centrifuged at 39,000×g for 10 min. The pellet was resuspended in the same volume of Tris buffer containing 5 mM MgCl2 with several brief pulses from a Polytron homogenizer. […] To each sample area 2×50 μL of Betaplate Scint scintillation fluid (LKB) was added and the radioactivity was quantified on a LKB (Wallac) 1205 BetaPlate liquid scintillation counter.
Analysis: The data from the scintillation counter were used to calculate either the % inhibition compared to control binding (when only a single concentration of test compound was evaluated) or a K1 value (when a range of concentrations was tested). Percent inhibition was calculated as: [(total dpm-test compound dpm)/(total dpm-nonspecific dpm)]*100. Kd and Ki values were calculated using GraphPad PRISM data analysis program.

T2 sequence (P32300 whole entry): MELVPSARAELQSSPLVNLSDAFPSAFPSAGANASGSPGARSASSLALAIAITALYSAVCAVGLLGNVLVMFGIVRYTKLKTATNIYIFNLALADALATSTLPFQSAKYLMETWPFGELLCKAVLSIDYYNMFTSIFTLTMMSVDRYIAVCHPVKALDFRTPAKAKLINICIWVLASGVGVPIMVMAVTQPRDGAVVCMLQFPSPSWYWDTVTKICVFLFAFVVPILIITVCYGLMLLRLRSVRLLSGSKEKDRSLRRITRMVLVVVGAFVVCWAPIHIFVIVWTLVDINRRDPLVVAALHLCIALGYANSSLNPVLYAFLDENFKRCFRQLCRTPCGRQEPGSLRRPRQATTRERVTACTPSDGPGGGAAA
T3 sequence (P32300 whole entry): as above
T1 sequence (P33535 whole entry): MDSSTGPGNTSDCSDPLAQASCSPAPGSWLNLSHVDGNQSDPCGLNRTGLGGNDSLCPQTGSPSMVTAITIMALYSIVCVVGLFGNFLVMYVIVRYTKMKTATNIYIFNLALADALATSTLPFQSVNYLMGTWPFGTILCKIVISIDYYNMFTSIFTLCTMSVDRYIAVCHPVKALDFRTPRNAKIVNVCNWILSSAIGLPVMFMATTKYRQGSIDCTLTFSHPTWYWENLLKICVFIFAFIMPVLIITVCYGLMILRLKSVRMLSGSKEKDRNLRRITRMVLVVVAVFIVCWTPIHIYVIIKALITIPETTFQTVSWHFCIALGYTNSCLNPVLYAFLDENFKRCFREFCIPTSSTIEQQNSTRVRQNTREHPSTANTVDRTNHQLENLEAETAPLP
T4 sequence (P33533 whole entry): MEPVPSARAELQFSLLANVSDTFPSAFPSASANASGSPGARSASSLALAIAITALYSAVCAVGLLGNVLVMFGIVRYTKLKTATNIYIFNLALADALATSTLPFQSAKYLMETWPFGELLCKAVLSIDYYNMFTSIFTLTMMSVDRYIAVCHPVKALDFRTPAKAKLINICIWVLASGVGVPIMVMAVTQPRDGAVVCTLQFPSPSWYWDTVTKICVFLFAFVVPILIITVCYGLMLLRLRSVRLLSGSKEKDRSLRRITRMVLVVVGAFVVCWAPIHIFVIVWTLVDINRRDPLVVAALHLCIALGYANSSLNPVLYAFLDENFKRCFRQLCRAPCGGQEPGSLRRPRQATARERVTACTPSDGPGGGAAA

SMILES | Ki [1] | GTγPS δ-opioid receptor Rel Efficacy [3] | also measured
COc1ccc(Oc2cc(-c3ccccc3)ccc2NC[C@@H]2CCCN2)cc1 [Cpd 35, (S)-[3-(4-Methoxy-phenoxy)-biphenyl-4-yl]-pyrrolidin-2-ylmethyl-amine] | > 10 µM | – | –
COC(=O)c1cccc(Oc2cc(-c3ccccc3)ccc2NC[C@@H]2CCCN2)c1 [Cpd 21] | > 10 µM | – | –
COc1ccc(Oc2cc(CCc3ccccc3)ccc2NC[C@@H]2CCCN2)cc1 [Cpd 5] | > 10 µM | – | –
COc1ccc(Oc2cc(CCc3ccc(F)cc3)ccc2NC[C@@H]2CCCN2)cc1 [Cpd 6] | > 10 µM | – | –
COc1ccc(Oc2cc(-c3cncc(SC)c3)ccc2NC[C@@H]2C[C@@H](F)CN2)cc1 [Cpd 26] | – | 1.0716 | GTPγS δ-RelEfficacy @200 nM [2]: 0.7
Clc1cccc(Cl)c1Oc1cc(-c2ccccc2)ccc1NC[C@@H]1CCCN1 [Cpd 18] | > 10 µM | 0.763 | –
COc1ccc(Oc2cc(-c3ccoc3)ccc2NC[C@@H]2CCCN2)cc1 [Cpd 40] | > 10 µM | – | –
COc1ccc(Oc2cc(-c3cncc(F)c3)ccc2NC[C@@H]2CCCN2)cc1 [Cpd 43] | – | 1.0908 | GTPγS δ-RelEfficacy @200 nM [2]: 0.43
Oc1ccc(Oc2cc(-c3cccnc3)ccc2NC[C@@H]2CCCN2)cc1 [Cpd 45, (S)-4-{5-Pyridin-3-yl-2-[(pyrrolidin-2-ylmethyl)-amino]-phenoxy}-phenol] | – | 0.627 | –
CNCCNc1ccc(Oc2ccc(OC)cc2)cc1Oc1ccc(OC)cc1 [Cpd 63, N-[2,4-Bis-(4-methoxy-phenoxy)-phenyl]-N′-methyl-ethane-1,2-diamine] | > 10 µM | – | –
COc1ccc(Oc2cc(-c3cccnc3)ccc2NC[C@@H]2CCCN2)cc1 [Cpd 39] | – | 0.9245 | –
CCN(CC)C(=O)c1cccc(Oc2cc(-c3ccccc3)ccc2NC[C@@H]2CCCN2)c1 [Cpd 34] | > 10 µM | – | –
N#Cc1cccc(Oc2cc(-c3ccccc3)ccc2NC[C@@H]2CCCN2)c1 [Cpd 13] | > 10 µM | – | –
COc1ccc(Oc2cc(-c3cncc(F)c3)ccc2NC[C@@H]2C[C@@H](F)CN2)cc1 [Cpd 25] | – | 1.0217 | GTPγS δ-RelEfficacy @200 nM [2]: 0.78
COc1ccc(Oc2cc(-c3ccccc3)ccc2N2CCNCC2)cc1 [Cpd 46, 1-[3-(4-Methoxy-phenoxy)biphenyl-4-yl]piperazine] | > 10 µM | – | –
Fc1ccc(Oc2cc(-c3ccccc3)ccc2NC[C@@H]2CCCN2)cc1 [Cpd 16] | > 10 µM | – | –
COc1ccc(Oc2cc(-c3ccsc3)ccc2NC[C@@H]2CCCN2)cc1 [Cpd 41] | > 10 µM | – | –
COc1ccc(Oc2cc(-c3cncnc3)ccc2NC[C@@H]2CCCN2)cc1 [Cpd 42] | – | – | GTPγS δ-RelEfficacy @200 nM [2]: 0.39
CCN(CC)C(=O)CCc1ccc(NC[C@@H]2CCCN2)c(Oc2ccc(OC)cc2)c1 [Cpd 2, N,N-Diethyl-3-[3-(4-methoxyphenoxy)-4-{[(2S)-pyrrolidin-2-ylmethyl]amino}phenyl]propanamide] | – | 0.8333 | –

SMILES | Ki [1] | GTγPS δ-opioid receptor Rel Efficacy [3] | also measured
O=C(O)c1cccc(Oc2cc(-c3ccccc3)ccc2NC[C@@H]2CCCN2)c1 [Cpd 32] | > 10 µM | – | –
Clc1ccc(Oc2cc(-c3ccccc3)ccc2NC[C@@H]2CCCN2)c(Cl)c1 [Cpd 22] | > 10 µM | – | –
COc1ccc(Oc2cc(CCc3cccc(OC)c3)ccc2NC[C@@H]2CCCN2)cc1 [Cpd 4] | > 10 µM | – | –
FC(F)(F)Oc1ccc(Oc2cc(-c3ccccc3)ccc2NC[C@@H]2CCCN2)cc1 [Cpd 17] | > 10 µM | – | –
c1ccc(Oc2cc(-c3ccccc3)ccc2NC[C@@H]2CCCN2)cc1 [Cpd 14] | > 10 µM | – | –
CCN(CC)C(=O)c1ccc(NC[C@@H]2CCCN2)c(Oc2ccc(OC)cc2)c1 [Cpd 10] | – | – | # abdominal stretches (cpd) ([4]; 30 mg/kg p.o.): 19; # abdominal stretches (cpd) ([4]; 30 mg/kg s.c.): 11; # abdominal stretches (cpd) ([4]; 100 mg/kg p.o.): 17.9; # abdominal stretches (cpd) ([4]; 300 mg/kg p.o.): 21.2
COc1ccc(Oc2cc(-c3cncc(C#N)c3)ccc2NC[C@@H]2C[C@@H](F)CN2)cc1 [Cpd 24, (2S,4R)-5-[4-[(4-Fluoro-pyrrolidin-2-ylmethyl)-amino]-3-(4-methoxy-phenoxy)-phenyl]-nicotinonitrile] | – | 1.0158 | GTPγS δ-RelEfficacy @200 nM [2]: 1.01
COc1ccc(Oc2cc(-c3cncc(C)c3)ccc2NC[C@@H]2C[C@@H](F)CN2)cc1 [Cpd 28] | – | 0.8756 | –
CCN(CC)C(=O)c1ccc(NC[C@@H]2CCCN2)c(Oc2ccccc2OC)c1 [Cpd 11] | > 10 µM | – | –
NC(=O)c1cccc(Oc2cc(-c3ccccc3)ccc2NC[C@@H]2CCCN2)c1 [Cpd 30] | – | 0.2668 | –
COC(=O)c1ccc(Oc2cc(-c3ccccc3)ccc2NC[C@@H]2CCCN2)cc1 [Cpd 20] | > 10 µM | – | –
COc1ccc(Oc2cc(-c3cncc(OC)c3)ccc2NC[C@@H]2C[C@@H](F)CN2)cc1 [Cpd 27] | > 10 µM | – | –
CCN(CC)C(=O)/C=C/c1ccc(NC[C@@H]2CCCN2)c(Oc2ccc(OC)cc2)c1 [Cpd 1, (2E)-N,N-Diethyl-3-[3-(4-methoxyphenoxy)-4-{[(2S)-pyrrolidin-2-ylmethyl]amino}phenyl]prop-2-enamide] | – | 0.8328 | # abdominal stretches (cpd) ([4]; 30 mg/kg s.c.): 10.9
COc1ccc(Oc2cc(-c3cccc4ccccc34)ccc2NC[C@@H]2CCCN2)cc1 [Cpd 37] | > 10 µM | – | –
COc1ccc(Oc2cc(-c3cncc(C#N)c3)ccc2NC[C@@H]2CCCN2)cc1 [Cpd 44] | – | 1.1554 | GTPγS δ-RelEfficacy @200 nM [2]: 0.45
COc1ccc(Oc2cc(CCc3cccc(F)c3)ccc2NC[C@@H]2CCCN2)cc1 [Cpd 7] | > 10 µM | – | –
COc1cccc(Oc2cc(-c3ccccc3)ccc2NC[C@@H]2CCCN2)c1 [Cpd 15] | > 10 µM | – | –
COc1ccc(Oc2ccc(NC[C@@H](N)CO)c(Oc3ccc(OC)cc3)c2)cc1 [Cpd 55] | > 10 µM | – | –
COc1ccc(Oc2cc(-c3ccncc3)ccc2NC[C@@H]2CCCN2)cc1 [Cpd 38] | 4.36 µM | 0.8323 | EC50 [3]: 0.478 µM; inhibition at 10 µM ([3]; read-out: GTPγS δ-opioid receptor % Inh @10 μM): 16.4%; Ki [5]: 0.0155 µM
